These results are taken from patent publication US11040981B2, “Pyrrolotriazine compounds and methods of inhibiting TAM kinases” (Syros Pharmaceuticals, Inc., priority 2017, dated 2021).

As usually defined, the IC50 is the concentration needed to halve the response being measured.

Assay [1] has as its target T1, AXL (Homo sapiens, UniProt P30530).
T1 sequence (P30530 26-894): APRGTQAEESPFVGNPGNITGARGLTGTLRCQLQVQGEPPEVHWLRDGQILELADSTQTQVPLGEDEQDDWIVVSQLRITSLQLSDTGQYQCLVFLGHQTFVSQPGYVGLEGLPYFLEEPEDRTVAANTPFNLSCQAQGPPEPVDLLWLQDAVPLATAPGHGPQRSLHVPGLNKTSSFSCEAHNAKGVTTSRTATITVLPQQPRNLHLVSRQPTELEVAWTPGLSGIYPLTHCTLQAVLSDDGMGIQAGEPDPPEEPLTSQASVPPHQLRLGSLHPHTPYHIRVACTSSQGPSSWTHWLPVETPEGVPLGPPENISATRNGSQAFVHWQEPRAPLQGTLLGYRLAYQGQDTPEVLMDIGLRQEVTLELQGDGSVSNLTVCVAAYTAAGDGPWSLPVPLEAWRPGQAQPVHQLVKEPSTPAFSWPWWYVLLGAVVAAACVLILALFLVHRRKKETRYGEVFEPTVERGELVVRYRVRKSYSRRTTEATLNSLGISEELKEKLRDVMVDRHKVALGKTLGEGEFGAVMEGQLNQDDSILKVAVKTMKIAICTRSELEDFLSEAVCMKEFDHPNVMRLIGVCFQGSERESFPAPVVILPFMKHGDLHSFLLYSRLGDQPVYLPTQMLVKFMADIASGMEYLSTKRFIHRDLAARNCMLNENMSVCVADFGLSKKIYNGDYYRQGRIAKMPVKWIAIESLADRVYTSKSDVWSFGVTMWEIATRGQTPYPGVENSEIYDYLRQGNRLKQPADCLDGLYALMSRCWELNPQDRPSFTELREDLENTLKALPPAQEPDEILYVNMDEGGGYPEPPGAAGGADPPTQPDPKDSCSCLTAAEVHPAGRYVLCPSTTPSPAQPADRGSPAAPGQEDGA
Put plainly: TR-FRET kinase activity assay, AXL. The class given is biochemical. As to conditions: ATP at Km, 60 minutes. The method in brief: (§1)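 Each kinase phosphorylated a fluorescent-labelled tyrosine peptide in 50 mM HEPES pH 7.5, 10 mM MgCl2, 1 mM EGTA, 0.01% Brij 35, 1 mM DTT at RT, with ATP at Km for that enzyme. After 60 min, EDTA quench and Eu-anti-phosphotyrosine antibody (30 min, dark); IC50 from TR-FRET decrease.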
In general terms: Time-resolved FRET reads energy transfer from a long-lived donor to a nearby acceptor.

In assay [2] the target is T2, FLT3 (Homo sapiens, UniProt P36888).
T2 sequence (P36888 27-993): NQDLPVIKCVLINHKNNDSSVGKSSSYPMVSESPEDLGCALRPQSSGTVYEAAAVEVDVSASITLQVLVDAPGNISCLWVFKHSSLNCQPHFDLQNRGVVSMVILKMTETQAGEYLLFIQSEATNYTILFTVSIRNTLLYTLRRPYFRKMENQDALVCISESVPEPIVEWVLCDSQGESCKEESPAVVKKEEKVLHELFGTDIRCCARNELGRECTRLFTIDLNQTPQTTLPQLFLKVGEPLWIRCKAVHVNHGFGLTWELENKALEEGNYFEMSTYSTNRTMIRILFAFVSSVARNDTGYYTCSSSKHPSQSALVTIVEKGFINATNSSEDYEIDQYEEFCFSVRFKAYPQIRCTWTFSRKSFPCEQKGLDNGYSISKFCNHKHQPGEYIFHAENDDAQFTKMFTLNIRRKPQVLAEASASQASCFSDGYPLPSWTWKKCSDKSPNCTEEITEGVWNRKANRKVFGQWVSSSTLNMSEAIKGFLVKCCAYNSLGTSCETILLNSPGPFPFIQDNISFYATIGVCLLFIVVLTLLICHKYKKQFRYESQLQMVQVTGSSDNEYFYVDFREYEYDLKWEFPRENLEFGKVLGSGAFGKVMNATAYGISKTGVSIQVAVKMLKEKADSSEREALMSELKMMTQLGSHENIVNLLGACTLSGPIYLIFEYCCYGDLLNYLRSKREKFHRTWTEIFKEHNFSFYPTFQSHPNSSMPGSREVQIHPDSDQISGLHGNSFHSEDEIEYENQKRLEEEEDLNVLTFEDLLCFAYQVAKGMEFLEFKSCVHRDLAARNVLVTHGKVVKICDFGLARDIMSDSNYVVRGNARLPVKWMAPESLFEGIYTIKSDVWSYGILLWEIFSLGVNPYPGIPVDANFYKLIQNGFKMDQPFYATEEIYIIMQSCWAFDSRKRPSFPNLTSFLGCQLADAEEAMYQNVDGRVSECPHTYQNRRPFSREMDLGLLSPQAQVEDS
Put plainly: TR-FRET kinase activity assay, FLT3. The format is biochemical. As to conditions: ATP at Km, 60 minutes. Put shortly:
as §1

A value given as a limit tells only on which side of the number the result lay.

Take `COCC(C)Nc1ncc2c(-c3cnn(C4COC4)c3)cc(C3CCNC(=O)C3)n2n1` (mixture of isomers) [Compound 592]: the half-inhibitory concentration (IC50) in assay [1] and in assay [2] was 1000 to 10000 nM each time.

As for `CC(COc1ccccc1)Nc1ncc2c(-c3cnn(C4COC4)c3)cc([C@H]3CC[C@H](O)CC3)n2n1` (mixture of isomers) [Compound 528], the IC50 was no more than 100 nM in assay [1] and 100 to 1000 nM in assay [2].

For the molecule `CC(Cc1ccc(F)cc1)Nc1ncc2c(-c3cnn(C4COC4)c3)cc(C3CCC(O)CC3)n2n1` (racemic) [Compound 535], the IC50 in assay [1] and in assay [2] was no more than 100 nM throughout.

Regarding `CC(Nc1ncc2c(-c3cnn(C4COC4)c3)cc(C3CCC(O)CC3)n2n1)c1cccnc1` (racemic) [Compound 536], the figures for the IC50 in assay [1] and in assay [2] were 100 to 1000 nM and 1000 to 10000 nM, respectively.

`CC[C@H](C)Nc1ncc2c(C3CCNCC3)cc([C@H]3CC[C@H](O)CC3)n2n1` [Compound 135, (trans)-4-(2-((S)-sec-butylamino)-5-(piperidin-4-yl)pyrrolo[2,1-f][1,2,4]triazin-7-yl)cyclohexanol]: the IC50 in assay [1] is no more than 100 nM; in assay [2], 100 to 1000 nM.

`CC[C@H](C)Nc1ncc2c(C3CCN(c4nccc(C)n4)CC3)cc([C@H]3CC[C@H](O)CC3)n2n1` [Compound 136, (trans)-4-(2-((S)-sec-butylamino)-5-(1-(4-methylpyrimidin-2-yl)piperidin-4-yl)pyrrolo[2,1-f][1,2,4]triazin-7-yl)cyclohexanol]: the IC50 in assay [1] fell in the range of 100 to 1000 nM; in assay [2], 1000 to 10000 nM.

Turning to `CCCCC[C@H](C)Nc1ncc2c([C@H]3CC[C@@H](C(=O)N4CCS(=O)(=O)CC4)CC3)cc([C@H]3CC[C@H](O)CC3)n2n1` [Compound 137], the IC50 was no more than 100 nM in assay [1] and 100 to 1000 nM in assay [2].

In the case of `CCOCC(C)Nc1ncc2c(-c3ccc(CN4CCN(C)CC4)cc3)cc(C3CCC(O)CC3)n2n1` (stereo not drawn) [Compound 138], the IC50 in assay [1] and in assay [2] was 100 to 1000 nM in each case.

For the molecule `COC[C@H](C)Nc1ncc2c(-c3ccc(C(=O)O)cc3)cc([C@H]3CC[C@H](O)CC3)n2n1` [Compound 139], the IC50 is no more than 100 nM in assay [1] and 1000 to 10000 nM in assay [2].

For `COC[C@H](C)Nc1ncc2c(-c3ccc(CN4CCOCC4)cc3)cc([C@H]3CC[C@H](O)CC3)n2n1` [Compound 140], the values for the IC50 in assay [1] and in assay [2] were no more than 100 nM and 100 to 1000 nM, respectively.

With `COC[C@H](C)Nc1ncc2c(C3=CCOCC3)cc([C@H]3CC[C@H](O)CC3)n2n1` [Compound 141], the values for the half-maximal inhibitory concentration (IC50) in assay [1] and in assay [2] were no more than 100 nM and 100 to 1000 nM, respectively.

On to `COCC(C)Nc1ncc2c(-c3ccc(CN4CCCC4)cc3)cc(C3CCC(O)CC3)n2n1` (stereo not drawn) [Compound 142], for which the IC50 in assay [1] was no more than 100 nM; in assay [2], 100 to 1000 nM.

In the case of `COCC(C)Nc1ncc2c(-c3ccc(C(C)N4CCOCC4)cc3)cc(C3CCC(O)CC3)n2n1` (stereo not drawn) [Compound 143], the 50% inhibitory concentration (IC50) in assay [1] and in assay [2] was no more than 100 nM each time.

With `C[C@H](Nc1ncc2c(-c3cnn(C4COC4)c3)cc([C@H]3CC[C@H](O)CC3)n2n1)C(F)(F)F` [Compound 510], the IC50 in assay [1] lay within 100 to 1000 nM; in assay [2] it was 1000 to 10000 nM.

For the molecule `COC[C@H](C)Nc1ncc2c(-c3cnn(C4COC4)c3)cc(-c3cccc(O)c3)n2n1` [Compound 511], the IC50 lay in the range of 1000 to 10000 nM in assay [1] and 100 to 1000 nM in assay [2].

On to `COC[C@H](C)Nc1ncc2c(-c3ccnc(N4CCN(CC5COC5)CC4)c3)cc([C@H]3CC[C@H](O)CC3)n2n1` [Compound 512], for which the IC50 is no more than 100 nM in assay [1] and 100 to 1000 nM in assay [2].

For `C[C@@H](COC(F)F)Nc1ncc2c(-c3ccc(S(C)(=O)=O)nc3)cc([C@H]3CC[C@H](O)CC3)n2n1` [Compound 513], the IC50 in assay [1] was no more than 100 nM; in assay [2], 100 to 1000 nM.

On to `CCN(C(=O)N1CCN(c2cc(-c3cc([C@H]4CC[C@H](O)CC4)n4nc(N[C@@H](C)COC)ncc34)ccn2)CC1)C(C)C` [Compound 514], for which the IC50 was no more than 100 nM in assay [1] and 1000 to 10000 nM in assay [2].

Consider `COC[C@H](C)Nc1ncc2c(-c3cnn(C4COC4)c3)cc(C3CCC(F)(F)CC3)n2n1` [Compound 515], for which the IC50 in assay [1] and in assay [2] was 100 to 1000 nM throughout.

With `COC[C@H](C)Nc1ncc2c(-c3cnn(C(C)(C)C(=O)N4CCCC5(COC5)C4)c3)cc([C@H]3CC[C@H](O)CC3)n2n1` [Compound 516], the values for the IC50 in assay [1] and in assay [2] were no more than 100 nM and 1000 to 10000 nM, respectively.

As for `Cc1nnc(C(C)(C)n2cc(-c3cc([C@H]4CC[C@H](O)CC4)n4nc(N[C@@H](C)COC(F)F)ncc34)cn2)o1` [Compound 517], the figures for the 50% inhibitory concentration (IC50) in assay [1] and in assay [2] were no more than 100 nM and 1000 to 10000 nM, respectively.

For `COC[C@H](C)Nc1ncc2c(-c3ccnc(N4CCc5cnn(C)c5C4)c3)cc([C@H]3CC[C@H](O)CC3)n2n1` [Compound 518], the IC50 is no more than 100 nM in assay [1] and 1000 to 10000 nM in assay [2].

With `COC[C@H](C)Nc1ncc2c(-c3cnn(C4COC4)c3)cc(C3CCSCC3)n2n1` [Compound 522], the IC50 in assay [1] and in assay [2] was 100 to 1000 nM throughout.

Turning to `COC[C@H](C)Nc1ncc2c(-c3cnn(C4COC4)c3)cc(C3CCC(=O)NC3)n2n1` (stereo partly drawn) [Compound 526], the IC50 in assay [1] and in assay [2] was 1000 to 10000 nM each time.

For `C[C@@H](Nc1ncc2c(-c3cnn(C4COC4)c3)cc([C@H]3CC[C@H](O)CC3)n2n1)C(F)(F)F` [Compound 527], the IC50 in assay [1] and in assay [2] was 100 to 1000 nM in each case.

For the molecule `COC[C@H](C)Nc1ncc2c(-c3ccc([S@](C)(=N)=O)nc3)cc([C@H]3CC[C@H](O)CC3)n2n1` [Compound 532], the 50% inhibitory concentration (IC50) in assay [1] was no more than 100 nM; in assay [2], 1000 to 10000 nM.

For `COC[C@H](C)Nc1ncc2c(-c3ccc([S@@](C)(=N)=O)nc3)cc([C@H]3CC[C@H](O)CC3)n2n1` [Compound 533], the half-maximal inhibitory concentration (IC50) is no more than 100 nM in assay [1] and 1000 to 10000 nM in assay [2].

In the case of `COC[C@H](C)Nc1ncc2c(-c3ccnc(N4CCOC(C(C)(C)O)C4)c3)cc([C@H]3CC[C@H](O)CC3)n2n1` (stereo partly drawn) [Compound 534], the values for the IC50 in assay [1] and in assay [2] were no more than 100 nM and 100 to 1000 nM, respectively.

As to `C[C@H](Nc1ncc2c(-c3cnn(C(C)(C)C(=O)N4CCOCC4)c3)cc([C@H]3CC[C@H](O)CC3)n2n1)C(F)(F)F` [Compound 537], the IC50 was no more than 100 nM in assay [1] and 1000 to 10000 nM in assay [2].

Take `COCC(C)Nc1ncc2c(-c3ccc4cc[nH]c4c3)cc(C3CCC(O)CC3)n2n1` (stereo not drawn) [Compound 538]: the IC50 fell in the range of 100 to 1000 nM in assay [1] and 1000 to 10000 nM in assay [2].

Take `COCC(C)Nc1ncc2c(-c3ccc4[nH]ccc4c3)cc(C3CCC(O)CC3)n2n1` (stereo not drawn) [Compound 539]: the IC50 in assay [1] lay within 100 to 1000 nM; in assay [2] it was 1000 to 10000 nM.

With `C[C@@H](CC(F)(F)F)Nc1ncc2c(-c3ccc([S@](C)(=N)=O)nc3)cc([C@H]3CC[C@H](O)CC3)n2n1` [Compound 540], the IC50 in assay [1] and in assay [2] was no more than 100 nM throughout.

Turning to `C[C@@H](CC(F)(F)F)Nc1ncc2c(-c3ccc([S@@](C)(=N)=O)nc3)cc([C@H]3CC[C@H](O)CC3)n2n1` [Compound 541], the IC50 in assay [1] and in assay [2] was no more than 100 nM throughout.
